For nine compounds, logD results are on record in the SangsterLogP compilation.

The nature of this data set: method code SF-AS, from DOI: 10.1021/jm00146a003, PMID: 4020837. The conditions noted are these: pH 7.4.

As for `CCOC(=O)Cn1cnc([N+](=O)[O-])c1I`, the logD came to 0.57.
To `O=C(Cn1cnc([N+](=O)[O-])c1I)Nc1cccnc1` belongs 0.46; to `CCOC(=O)Cn1cnc(I)c1[N+](=O)[O-]`, 0.93; to `Cn1cnc([N+](=O)[O-])c1I`, 1.
The value for `Cn1cnc(I)c1[N+](=O)[O-]` was 1.29; that for `O=[N+]([O-])c1nc[nH]c1I` was 0.28; that for `O=C(Cn1cnc([N+](=O)[O-])c1I)NCc1ccc[n+]([O-])c1` was -1.4.
The value for `COCC(O)Cn1cnc([N+](=O)[O-])c1I` (centres undefined) was 0.41; that for `COCC(O)Cn1cnc(I)c1[N+](=O)[O-]` (centres undefined) was 0.89.
